The IC50 is the point on the concentration scale where inhibition reaches its midpoint. A high value points to a need for much substance. As a reminder, the inhibition is the percentage by which the read-out fell short of the control. Low readings indicate a response near the control, high ones a response far below the control. The solubility is the concentration that dissolves in the medium under given conditions.

The source of these data is ChEMBL document CHEMBL1795262, “Pyrazole-based sulfonamide and sulfamides as potent inhibitors of mammalian 15-lipoxygenase” (Bioorg Med Chem Lett, 2011).

The target of series [1] is T1, Polyunsaturated fatty acid lipoxygenase ALOX15 (Oryctolagus cuniculus, UniProt P12530).
T1 sequence (P12530 whole entry): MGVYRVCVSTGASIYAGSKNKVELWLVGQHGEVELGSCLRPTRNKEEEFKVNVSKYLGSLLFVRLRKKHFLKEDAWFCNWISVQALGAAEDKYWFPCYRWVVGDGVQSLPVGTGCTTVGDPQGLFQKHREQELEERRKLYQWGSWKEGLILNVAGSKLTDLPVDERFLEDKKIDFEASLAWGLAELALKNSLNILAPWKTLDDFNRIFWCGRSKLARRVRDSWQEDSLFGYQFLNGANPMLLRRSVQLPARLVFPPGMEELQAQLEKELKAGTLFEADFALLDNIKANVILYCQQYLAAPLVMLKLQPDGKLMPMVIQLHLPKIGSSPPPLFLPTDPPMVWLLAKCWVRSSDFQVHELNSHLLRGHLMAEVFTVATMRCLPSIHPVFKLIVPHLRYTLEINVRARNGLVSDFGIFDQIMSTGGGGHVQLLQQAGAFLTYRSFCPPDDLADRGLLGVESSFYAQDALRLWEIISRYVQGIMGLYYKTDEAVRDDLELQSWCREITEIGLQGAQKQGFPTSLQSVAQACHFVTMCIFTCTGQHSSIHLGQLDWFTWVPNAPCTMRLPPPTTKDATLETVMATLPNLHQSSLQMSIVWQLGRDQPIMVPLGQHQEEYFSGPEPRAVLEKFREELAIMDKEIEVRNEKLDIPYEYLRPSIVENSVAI
The series can be described thus: Inhibition of rabbit 15-LO using arachidonic acid by standard colorimetric assay.

For series [2], the species on record is Oryctolagus cuniculus. Briefly: Inhibition of 15-HETE production in New Zealand White rabbit whole blood at 10 uM by RP-HPLC. It is filed as functional.
In series [3] the target is T1, Polyunsaturated fatty acid lipoxygenase ALOX15. The series can be described thus: Inhibition of rabbit 15-LO using linoleic acid by standard colorimetric assay.
Series [4] can be described thus: Aqueous solubility of the compound in water at pH 6.5.
The species named for series [5] is Oryctolagus cuniculus. Briefly: Inhibition of 15-HETE production in New Zealand White rabbit whole blood at 3 uM by RP-HPLC. It is filed as functional.
The target in series [6] is T2, Polyunsaturated fatty acid lipoxygenase ALOX15 (Homo sapiens) (UniProt P16050).
T2 sequence (whole entry): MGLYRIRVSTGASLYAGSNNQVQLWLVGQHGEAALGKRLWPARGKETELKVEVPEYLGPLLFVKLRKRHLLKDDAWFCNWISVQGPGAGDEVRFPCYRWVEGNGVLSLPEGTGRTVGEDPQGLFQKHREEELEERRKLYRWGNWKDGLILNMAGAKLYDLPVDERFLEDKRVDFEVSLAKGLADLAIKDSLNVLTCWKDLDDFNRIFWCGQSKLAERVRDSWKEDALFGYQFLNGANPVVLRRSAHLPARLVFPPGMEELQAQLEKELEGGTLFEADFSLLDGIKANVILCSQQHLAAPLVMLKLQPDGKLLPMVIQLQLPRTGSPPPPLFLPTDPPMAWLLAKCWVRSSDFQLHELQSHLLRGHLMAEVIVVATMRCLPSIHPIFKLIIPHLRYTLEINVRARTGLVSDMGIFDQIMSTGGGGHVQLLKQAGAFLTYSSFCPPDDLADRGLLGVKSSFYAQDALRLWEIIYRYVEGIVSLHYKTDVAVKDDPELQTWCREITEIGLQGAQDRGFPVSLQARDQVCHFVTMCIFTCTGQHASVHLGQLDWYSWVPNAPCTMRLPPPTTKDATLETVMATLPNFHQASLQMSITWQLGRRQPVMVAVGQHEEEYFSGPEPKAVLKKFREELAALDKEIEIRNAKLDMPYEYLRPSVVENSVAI
Briefly: Inhibition of human 15-LO expressed in CHO cells at 1 uM by cell-based assay.

For series [7], the species on record is Oryctolagus cuniculus. Briefly: Inhibition of 15-HETE production in New Zealand White rabbit whole blood at 1 uM by RP-HPLC. The format is functional.
Series [8] concerns the target T3, Polyunsaturated fatty acid lipoxygenase ALOX12 (Homo sapiens) (UniProt P18054).
T3 sequence (whole entry): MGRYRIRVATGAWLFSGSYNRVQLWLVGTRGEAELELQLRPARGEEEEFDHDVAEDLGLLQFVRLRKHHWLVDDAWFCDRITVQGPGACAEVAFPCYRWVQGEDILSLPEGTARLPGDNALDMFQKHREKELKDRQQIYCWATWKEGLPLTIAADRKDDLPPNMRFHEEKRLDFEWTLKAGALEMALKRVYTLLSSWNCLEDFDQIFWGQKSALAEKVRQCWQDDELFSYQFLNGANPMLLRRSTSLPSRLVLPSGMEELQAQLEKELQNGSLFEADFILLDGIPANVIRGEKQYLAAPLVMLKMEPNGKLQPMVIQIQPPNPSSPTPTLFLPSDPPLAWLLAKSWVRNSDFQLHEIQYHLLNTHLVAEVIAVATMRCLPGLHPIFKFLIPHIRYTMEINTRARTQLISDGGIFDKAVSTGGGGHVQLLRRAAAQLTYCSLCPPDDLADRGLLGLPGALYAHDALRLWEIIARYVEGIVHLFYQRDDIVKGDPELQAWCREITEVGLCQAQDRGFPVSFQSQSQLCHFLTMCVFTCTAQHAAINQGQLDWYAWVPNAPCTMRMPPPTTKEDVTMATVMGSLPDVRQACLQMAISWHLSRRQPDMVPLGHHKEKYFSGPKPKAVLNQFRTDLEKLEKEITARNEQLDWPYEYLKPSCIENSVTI
Briefly: Inhibition of 12-LO at 10 uM.

Series [9] deals with T4, Polyunsaturated fatty acid 5-lipoxygenase (Homo sapiens) (UniProt P09917).
T4 sequence (whole entry): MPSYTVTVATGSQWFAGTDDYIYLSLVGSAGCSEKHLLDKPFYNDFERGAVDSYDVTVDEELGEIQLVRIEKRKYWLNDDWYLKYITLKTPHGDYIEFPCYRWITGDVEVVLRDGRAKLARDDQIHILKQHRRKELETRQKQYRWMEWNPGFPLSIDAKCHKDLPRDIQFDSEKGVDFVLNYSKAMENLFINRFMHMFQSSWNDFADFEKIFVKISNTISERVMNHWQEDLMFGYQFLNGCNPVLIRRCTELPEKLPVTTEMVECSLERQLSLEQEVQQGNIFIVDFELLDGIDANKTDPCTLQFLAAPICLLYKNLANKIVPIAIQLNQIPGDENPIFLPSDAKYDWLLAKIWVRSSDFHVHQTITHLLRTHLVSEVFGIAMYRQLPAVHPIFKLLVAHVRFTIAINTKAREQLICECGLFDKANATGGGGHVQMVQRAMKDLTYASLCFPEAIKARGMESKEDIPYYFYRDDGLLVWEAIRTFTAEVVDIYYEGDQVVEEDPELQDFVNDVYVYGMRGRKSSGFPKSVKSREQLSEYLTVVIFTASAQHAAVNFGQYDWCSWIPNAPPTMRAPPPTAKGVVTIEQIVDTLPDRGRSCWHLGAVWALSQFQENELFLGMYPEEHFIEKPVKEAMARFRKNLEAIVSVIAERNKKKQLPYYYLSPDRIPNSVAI
The series can be described thus: Inhibition of 5-LO at 10 uM.

Series [10] deals with T2, Polyunsaturated fatty acid lipoxygenase ALOX15 (Homo sapiens). The series can be described thus: Inhibition of human 15-LO expressed in CHO cells at 3 uM by cell-based assay.
Series [11] concerns the target T5, Polyunsaturated fatty acid 5-lipoxygenase (Homo sapiens, UniProt P09917).
T5 sequence (P09917 whole entry): T4 sequence (whole entry)
The series can be described thus: Inhibition of 5-LO.

Converted amounts (≈) assume the structure as drawn.

Take `Cc1cc(-c2[nH]nc(-c3cccs3)c2CCNS(=O)(=O)N(C)[C@@H]2CCN(Cc3ccccc3)C2)no1`: the concentration for half-maximal inhibition (IC50) is 0.015 µM in series [1] and 0.0042 µM in [3]. In the series listed under Oryctolagus cuniculus [2], testing at 10 µM gave an inhibition of 71%.

As for `CN([C@@H]1CCN(Cc2ccccc2)C1)S(=O)(=O)NCCc1c(-c2cccs2)n[nH]c1-c1cnccn1`, in series [4], the concentration in solution (solubility) was 79 µg/mL (≈ 151 µM). For the same compound, 3 µM produced 51% inhibition in the series listed under Oryctolagus cuniculus [5]. The inhibition in [6] is 81%. For the same compound, the IC50 is 0.007 µM in series [1] and 0.003 µM in series [3].

`CCN([C@@H]1CCN(C(C)c2ccc(F)cc2)C1)S(=O)(=O)NCCc1c(-c2cccs2)n[nH]c1-c1cnccn1` (some centres undefined) showed a solubility in [4] of 129 µg/mL (≈ 226 µM). For the same compound, in the series filed under Oryctolagus cuniculus [5], 3 µM produced 73% inhibition. Also, the inhibition at 1 µM in the series filed under Oryctolagus cuniculus [7] was found to be 45%. Besides, the inhibition in series [8] amounted to 16%.

Turning to `CCCCCc1ccc(S(=O)(=O)NCCc2c(-c3ccccc3)n[nH]c2-c2ccccc2)cc1`, the IC50 in series [1] turned out to be 0.313 µM; in series [3], 0.035 µM.

The compound `CCN([C@@H]1CCN(C(C)(C)c2ccccc2)C1)S(=O)(=O)NCCc1c(-c2cccs2)n[nH]c1-c1cnccn1` showed a solubility in series [4] of 71 µg/mL (≈ 125 µM). For the same compound, the inhibition in series [9] came out at 60%; in series [8] it was 35%; in [10] it was 83%. Also, the IC50 in series [1] was 0.0041 µM; in [3], 0.0027 µM. The compound also displayed an inhibition at 10 µM in the series listed under Oryctolagus cuniculus [2] of 63%.

With `CCN([C@@H]1CCN([C@@H](C)c2ccccc2)C1)S(=O)(=O)NCCc1c(-c2cccs2)n[nH]c1-c1cnccn1`, the concentration in solution in series [4] (solubility) came to 76 µg/mL (≈ 138 µM). Moreover, the figures for the IC50 in [11], in [1] and in series [3] were 5.5 µM, 0.0024 µM and 0.0018 µM, respectively. Moreover, in the series filed under Oryctolagus cuniculus [5], at 3 µM the inhibition was 69%. For the same compound, at 1 µM the inhibition in the series filed under Oryctolagus cuniculus [7] was 39%. Besides, the inhibition in series [8] is 32%; in [10], 94%.

In series [3], `CCCCCc1ccc(S(=O)(=O)NCCc2c(-c3ccc(OC)cc3)n[nH]c2CC(C)C)cc1` registered an IC50 of 0.305 µM.

Take `CCCCCc1ccc(S(=O)(=O)NCCc2c(-c3ccccc3)n[nH]c2-c2cccc(OC)c2)cc1`: the values for the IC50 in series [1] and in series [3] were 0.524 µM and 0.068 µM, respectively.

As to `CN([C@@H]1CCN(Cc2ccccc2)C1)S(=O)(=O)NCCc1c(-c2cccs2)n[nH]c1-c1ccccc1`, the IC50 in series [1] was determined as 0.0075 µM; in [3], 0.0036 µM. The same compound returned an inhibition at 10 µM in the series filed under Oryctolagus cuniculus [2] of 44%.

Regarding `CCCCCc1ccc(S(=O)(=O)NCCc2c(-c3cccs3)n[nH]c2-c2ccccc2)cc1`, the IC50 in series [1] was 0.028 µM; in series [3], 0.011 µM.

As to `COc1cccc(-c2[nH]nc(-c3cccs3)c2CCNS(=O)(=O)N(C)[C@@H]2CCN(Cc3ccccc3)C2)c1`, the inhibition in [6] was 51%. The IC50 in series [1] was determined as 0.0043 µM; in series [3], 0.0015 µM. The inhibition at 10 µM in the series listed under Oryctolagus cuniculus [2] is 43%.

In [3], `CCCCCc1ccc(S(=O)(=O)NCCc2c(-c3ccc(OC)cc3)n[nH]c2C)cc1` displayed an IC50 of 3.98 µM.

Regarding `CCCCCc1ccc(S(=O)(=O)NCCc2c(-c3cccs3)n[nH]c2-c2cccc(OC)c2)cc1`, the concentration for half-maximal inhibition (IC50) in [1] worked out at 0.053 µM; in series [3] it was 0.009 µM.

With `CN([C@@H]1CCN(Cc2ccccc2)C1)S(=O)(=O)NCCc1c(-c2cccs2)n[nH]c1-c1cccs1`, the inhibition at 3 µM in the series filed under Oryctolagus cuniculus [5] was 40%. Further, in series [6], the inhibition came to 79%. Moreover, the IC50 in series [1] was determined as 0.007 µM; in [3], 0.002 µM.

As to `CCCCCc1ccc(S(=O)(=O)NCCc2c(-c3cccs3)n[nH]c2-c2cccs2)cc1`, the solubility in series [4] is 0.2 µg/mL (≈ 0.412 µM). The results for the IC50 in series [1] and in [3] were 0.019 µM and 0.004 µM, respectively. The compound further displayed an inhibition at 10 µM in the series listed under Oryctolagus cuniculus [2] of 25%. The same compound came in with an inhibition in series [8] of 35%.

`CCCCCc1ccc(S(=O)(=O)NCCc2c(-c3ccccc3)n[nH]c2-c2ccc(OC)cc2)cc1`: the half-inhibitory concentration (IC50) in series [1] stood at 1.56 µM; in series [3], 0.15 µM.

`CCCCCc1ccc(S(=O)(=O)NCCc2c(-c3ccccc3OC)n[nH]c2-c2ccccc2)cc1` had a concentration for half-maximal inhibition (IC50) in [3] of 1.22 µM.

In the case of `CCCCCc1ccc(S(=O)(=O)NCCc2c(-c3ccccc3)n[nH]c2Cc2ccccc2)cc1`, the IC50 was 0.918 µM in series [1] and 0.158 µM in series [3].

As for `CCN([C@@H]1CCN([C@H](C)c2ccccc2)C1)S(=O)(=O)NCCc1c(-c2cccs2)n[nH]c1-c1cnccn1`, in series [4], the concentration in solution (solubility) came to 71 µg/mL (≈ 129 µM). Also, the inhibition in series [9] turned out to be 68%; in [8] it was 38%; in [10], 61%. The IC50 in series [1] was 0.0082 µM; in series [3] it was 0.0053 µM. In the series listed under Oryctolagus cuniculus [2], this compound had an inhibition at 10 µM of 55%.

With `CCCCCc1ccc(S(=O)(=O)NCCc2c(-c3cccs3)n[nH]c2-c2cc(C)on2)cc1`, the 50% inhibitory concentration (IC50) in series [1] was 0.036 µM; in series [3], 0.01 µM.

In the case of `CCCCCc1ccc(S(=O)(=O)NCCc2c(-c3cccs3)n[nH]c2-c2cnccn2)cc1`, the IC50 in series [1] worked out at 0.065 µM; in [3] it was 0.012 µM.
